Reference: the supplement of paper PMC10307832

Experiments:
Experiment in all cases: relative viability (nuclei count vs DMSO), 5 days (fraction); higher = more cells survive
DM3189 + Tozasertib = compound: C1CN(CCN1)C2=CC=C(C=C2)C3=CN4C(=C(C=N4)C5=CC=NC6=CC=CC=C56)N=C3 [DM3189] + Cc1cc(Nc2cc(N3CCN(C)CC3)nc(Sc3ccc(NC(=O)C4CC4)cc3)n2)n[nH]1 [Tozasertib] (partner 0.1 µM)
In short: (§1)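 Each reported value is a median over duplicate plates. It expresses relative viability: treated-well nuclei count divided by vehicle-well nuclei count. Lung cancer cell lines in 1536-well plates were dosed by pin tool a day after seeding, alone with one drug or with a fixed anchor-drug dose plus five library-drug doses (not always all listed) in √10 steps, and nuclei were counted after 5 days.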

DM3189 + OSI-027 = compound: C1CN(CCN1)C2=CC=C(C=C2)C3=CN4C(=C(C=N4)C5=CC=NC6=CC=CC=C56)N=C3 [DM3189] + COc1cccc2cc(-c3nc([C@H]4CC[C@H](C(=O)O)CC4)n4ncnc(N)c34)[nH]c12 [OSI-027] (partner 0.5 µM)
In short: as §1

DM3189 + Pemetrexed = compound: C1CN(CCN1)C2=CC=C(C=C2)C3=CN4C(=C(C=N4)C5=CC=NC6=CC=CC=C56)N=C3 [DM3189] + Nc1nc2[nH]cc(CCc3ccc(C(=O)N[C@@H](CCC(=O)O)C(=O)O)cc3)c2c(=O)[nH]1 [Pemetrexed] (partner 0.2 µM)
In short: as §1

DM3189 + Bortezomib = compound: C1CN(CCN1)C2=CC=C(C=C2)C3=CN4C(=C(C=N4)C5=CC=NC6=CC=CC=C56)N=C3 [DM3189] + CC(C)C[C@H](NC(=O)[C@H](Cc1ccccc1)NC(=O)c1cnccn1)B(O)O [Bortezomib] (partner 0.002 µM)
In short: as §1

DM3189 + Palbociclib = compound: C1CN(CCN1)C2=CC=C(C=C2)C3=CN4C(=C(C=N4)C5=CC=NC6=CC=CC=C56)N=C3 [DM3189] + CC(=O)c1c(C)c2cnc(Nc3ccc(N4CCNCC4)cn3)nc2n(C2CCCC2)c1=O [Palbociclib] (partner 0.5 µM)
In short: as §1

| Cell Line | relative viability (DM3189 + Tozasertib; first compound 0.08 µM) | relative viability (DM3189 + Tozasertib; first compound 0.253 µM) | relative viability (DM3189 + Tozasertib; first compound 0.8 µM) | relative viability (DM3189 + Tozasertib; first compound 2.53 µM) | relative viability (DM3189 + OSI-027; first compound 0.08 µM) | relative viability (DM3189 + OSI-027; first compound 0.253 µM) | relative viability (DM3189 + OSI-027; first compound 0.8 µM) | relative viability (DM3189 + OSI-027; first compound 2.53 µM) | relative viability (DM3189 + Pemetrexed; first compound 0.08 µM) | relative viability (DM3189 + Pemetrexed; first compound 0.253 µM) | relative viability (DM3189 + Pemetrexed; first compound 0.8 µM) | relative viability (DM3189 + Pemetrexed; first compound 2.53 µM) | relative viability (DM3189 + Bortezomib; first compound 0.08 µM) | relative viability (DM3189 + Bortezomib; first compound 0.253 µM) | relative viability (DM3189 + Bortezomib; first compound 0.8 µM) | relative viability (DM3189 + Bortezomib; first compound 2.53 µM) | relative viability (DM3189 + Palbociclib; first compound 0.08 µM) | relative viability (DM3189 + Palbociclib; first compound 0.253 µM) | relative viability (DM3189 + Palbociclib; first compound 0.8 µM) | relative viability (DM3189 + Palbociclib; first compound 2.53 µM) |
| --- | --- | --- | --- | --- | --- | --- | --- | --- | --- | --- | --- | --- | --- | --- | --- | --- | --- | --- | --- | --- |
| COR-L 105 | 0.434 | 0.371 | 0.32 | 0.358 | 1.21 | 0.928 | 0.789 | 0.615 | 1.13 | 1.22 | 1.26 | 1.13 | 1.38 | 0.771 | 0.795 | 0.322 | 0.408 | 0.441 | 0.353 | 0.489 |
| LOU-NH91 | 0.7 | 0.696 | 0.659 | 0.637 | 0.869 | 0.719 | 0.681 | 0.801 | 0.375 | 0.407 | 0.331 | 0.368 | 0.487 | 0.529 | 0.463 | 0.443 | 0.514 | 0.53 | 0.501 | 0.562 |
| LU99A | 0.284 | 0.242 | – | 0.307 | 0.293 | 0.299 | – | 0.308 | 0.185 | 0.233 | – | 0.161 | 1.23 | 1.01 | – | 1.04 | 0.482 | 0.372 | – | 0.365 |
| NCI-H1650 | 0.322 | 0.362 | 0.389 | 0.377 | 0.715 | 0.658 | 0.468 | 0.524 | 0.311 | 0.347 | 0.351 | 0.37 | 0.248 | 0.163 | 0.228 | 0.189 | 0.407 | 0.292 | 0.349 | 0.309 |
| UMC-11 | 0.189 | 0.201 | 0.199 | 0.21 | 0.531 | 0.461 | 0.395 | 0.51 | 0.845 | 0.763 | 0.814 | 0.562 | 0.863 | 0.635 | 0.769 | 0.397 | 0.371 | 0.333 | 0.313 | 0.323 |
| HOP-62 | 0.31 | 0.347 | 0.389 | 0.356 | 1.02 | 0.852 | 0.817 | 0.871 | 0.32 | 0.296 | 0.295 | 0.346 | 1.18 | 0.927 | 0.393 | 0.58 | 0.53 | 0.453 | 0.46 | 0.402 |
| NCI-H1993 | 0.58 | 0.584 | 0.554 | 0.637 | 0.541 | 0.49 | 0.476 | 0.506 | 0.622 | 0.626 | 0.545 | 0.541 | – | 0.915 | 1.17 | 1.27 | 0.779 | 0.809 | 0.571 | 0.736 |
| LCLC-103H | 0.502 | 0.453 | 0.461 | 0.408 | 0.513 | 0.435 | 0.442 | 0.41 | 0.514 | 0.407 | 0.431 | 0.469 | 1.14 | 0.939 | 0.955 | 1.07 | 0.536 | 0.434 | 0.45 | 0.455 |
